This passage reports MIC results from US9822114B2, “Tricyclic oxazolidinone antibiotic compounds” (Idorsia Pharmaceuticals Ltd, priority 2008, dated 2017).

Converted amounts (≈) assume the structure as drawn. Bounds are passed on as bounds.

This experiment deals with M. catarrhalis A894. The experiment can be described thus: Minimal inhibitory concentration (MIC), microdilution method in cation-adjusted Mueller-Hinton Broth (CLSI M7-A7). Format: cell-based. The following applies: Moraxella catarrhalis, strain A894. How it is done: Minimal inhibitory concentrations (MICs; mg/1) were determined in cation-adjusted Mueller-Hinton Broth by a microdilution method following the description given in “Methods for Dilution Antimicrobial Susceptibility Tests for Bacteria that Grow Aerobically”, Approved standard, 7th ed., Clinical and Laboratory Standards Institute (CLSI) Document M7-A7, Wayne, Pa., USA, 2006.
Background: Broth dilution looks for growth in wells or tubes with falling amounts of substance.
Consider `O=C1COc2ccc(N3C[C@H](CCCN[C@@H]4Cn5c(=O)ccc6cccc4c65)OC3=O)cc2N1` [Example 86, (S)-1-{3-[(S)-2-oxo-3-(3-oxo-3,4-dihydro-2H-benzo[1,4]oxazin-6-yl)-oxazolidin-5-yl]-propylamino}-1,2-dihydro-pyrrolo[3,2,1-ij]quinolin-4-one], for which the MIC (as a rule, the lowest concentration found to suppress growth) was no more than 0.031 µg/mL.
The molecule `O=C1CSc2ccc(N3C[C@@H](CCN[C@@H]4Cn5c(=O)ccc6cccc4c65)OC3=O)cc2N1` [Example 87, (S)-1-{2-[(R)-2-oxo-3-(3-oxo-3,4-dihydro-2H-benzo[1,4]thiazin-6-yl)-oxazolidin-5-yl]-ethylamino}-1,2-dihydro-pyrrolo[3,2,1-ij]quinolin-4-one] returned an MIC of no more than 0.031 µg/mL.
The value for `O=C1CSc2ccc(N3C[C@H](CCN[C@@H]4Cn5c(=O)ccc6cccc4c65)OC3=O)cc2N1` [Example 88, (S)-1-{2-[(S)-2-oxo-3-(3-oxo-3,4-dihydro-2H-benzo[1,4]thiazin-6-yl)-oxazolidin-5-yl]-ethylamino}-1,2-dihydro-pyrrolo[3,2,1-ij]quinolin-4-one] was no more than 0.031 µg/mL; that for `O=C1COc2ccc(N3C[C@H](CCN[C@@H]4Cn5c(=O)ccc6cccc4c65)OC3=O)cc2N1` [Example 89, (S)-1-{2-[(S)-2-oxo-3-(3-oxo-3,4-dihydro-2H-benzo[1,4]oxazin-6-yl)-oxazolidin-5-yl]-ethylamino}-1,2-dihydro-pyrrolo[3,2,1-ij]quinolin-4-one] was 0.063 µg/mL (≈ 0.141 µM); that for `O=C1COc2ccc(N3C[C@@H](CCCN[C@H]4Cn5c(=O)cnc6ccc(F)c4c65)OC3=O)cc2N1` [Example 104, (R)-7-fluoro-6-{3-[(R)-2-oxo-3-(3-oxo-3,4-dihydro-2H-benzo[1,4]oxazin-6-yl)-oxazolidin-5-yl]-propylamino}-5,6-dihydro-pyrrolo[1,2,3-de]quinoxalin-3-one] was no more than 0.031 µg/mL.
In the case of `O=C1CSc2ccc(N3C[C@@H](CCCN[C@H]4Cn5c(=O)cnc6ccc(F)c4c65)OC3=O)cc2N1` [Example 105, (R)-7-fluoro-6-{3-[(R)-2-oxo-3-(3-oxo-3,4-dihydro-2H-benzo[1,4]thiazin-6-yl)-oxazolidin-5-yl]-propylamino}-5,6-dihydro-pyrrolo[1,2,3-de]quinoxalin-3-one], the MIC was no more than 0.031 µg/mL.
The value for `O=C1CSc2ccc(N3C[C@@H](CCCN[C@H]4Cn5c(=O)ccc6cccc4c65)OC3=O)cc2N1` [Example 109, (R)-1-{3-[(R)-2-oxo-3-(3-oxo-3,4-dihydro-2H-benzo[1,4]thiazin-6-yl)-oxazolidin-5-yl]-propylamino}-1,2-dihydro-pyrrolo[3,2,1-ij]quinolin-4-one] was no more than 0.031 µg/mL; that for `COc1nc2ccc(F)c3c2n(c1=O)C[C@@H]3NCCC[C@@H]1CN(c2ccc3c(c2)NC(=O)CO3)C(=O)O1` [Example 111, (R)-7-fluoro-2-methoxy-6-{3-[(R)-2-oxo-3-(3-oxo-3,4-dihydro-2H-benzo[1,4]oxazin-6-yl)-oxazolidin-5-yl]-propylamino}-5,6-dihydro-pyrrolo[1,2,3-de]quinoxalin-3-one] was 0.125 µg/mL (≈ 0.245 µM); that for `COc1nc2ccc(F)c3c2n(c1=O)C[C@@H]3NCCC[C@@H]1CN(c2ccc3c(c2)NC(=O)CS3)C(=O)O1` [Example 112, (R)-7-fluoro-2-methoxy-6-{3-[(R)-2-oxo-3-(3-oxo-3,4-dihydro-2H-benzo[1,4]thiazin-6-yl)-oxazolidin-5-yl]-propylamino}-5,6-dihydro-pyrrolo[1,2,3-de]quinoxalin-3-one] was no more than 0.031 µg/mL.
In the case of `O=C1CSc2ccc(N3C[C@@H](CCCN[C@@H]4CN5C(=O)CNc6cccc4c65)OC3=O)cc2N1` [Example 114, (S)-6-{3-[(R)-2-oxo-3-(3-oxo-3,4-dihydro-2H-benzo[1,4]thiazin-6-yl)-oxazolidin-5-yl]-propylamino}-1,2,5,6-tetrahydro-pyrrolo[1,2,3-de]quinoxalin-3-one] it was no more than 0.031 µg/mL; in that of `CCOC(=O)c1ccc2c3c1ccc(=O)n3C[C@@H]2NCCC[C@H]1CN(c2ccc3c(c2)NC(=O)CS3)C(=O)O1` [Example 119, (R)-4-oxo-1-{3-[(S)-2-oxo-3-(3-oxo-3,4-dihydro-2H-benzo[1,4]thiazin-6-yl)-oxazolidin-5-yl]-propylamino}-1,2-dihydro-4H-pyrrolo[3,2,1-ij]quinoline-7-carboxylic acid ethyl ester], no more than 0.031 µg/mL; in that of `O=C1CSc2ccc(N3C[C@H](CCCN[C@H]4Cn5c(=O)ccc6c(CO)ccc4c65)OC3=O)cc2N1` [Example 120, (R)-7-hydroxymethyl-1-{3-[(S)-2-oxo-3-(3-oxo-3,4-dihydro-2H-benzo[1,4]thiazin-6-yl)-oxazolidin-5-yl]-propylamino}-1,2-dihydro-pyrrolo[3,2,1-ij]quinolin-4-one], 0.125 µg/mL (≈ 0.247 µM).
The value for `Cl.O=C1CSc2ccc(N3C[C@H](CCCN[C@H]4Cn5c(=O)ccc6c(C(=O)O)ccc4c65)OC3=O)cc2N1` [Example 121, (R)-4-oxo-1-{3-[(S)-2-oxo-3-(3-oxo-3,4-dihydro-2H-benzo[1,4]thiazin-6-yl)-oxazolidin-5-yl]-propylamino}-1,2-dihydro-4H-pyrrolo[3,2,1-ij]quinoline-7-carboxylic acid hydrochloride] was 0.125 µg/mL; that for `CN(C)Cc1ccc2c3c1ccc(=O)n3C[C@@H]2NCCC[C@H]1CN(c2ccc3c(c2)NC(=O)CS3)C(=O)O1` [Example 122, (R)-7-dimethylaminomethyl-1-{3-[(S)-2-oxo-3-(3-oxo-3,4-dihydro-2H-benzo[1,4]thiazin-6-yl)-oxazolidin-5-yl]-propylamino}-1,2-dihydro-pyrrolo[3,2,1-ij]quinolin-4-one] was 0.5 µg/mL (≈ 0.937 µM).
`O=C1CSc2ccc(N3C[C@H](CCCN[C@H]4Cn5c(=O)ccc6c(CN7CCCC7)ccc4c65)OC3=O)cc2N1` [Example 123, (R)-1-{3-[(S)-2-oxo-3-(3-oxo-3,4-dihydro-2H-benzo[1,4]thiazin-6-yl)-oxazolidin-5-yl]-propylamino}-7-pyrrolidin-1-ylmethyl-1,2-dihydro-pyrrolo[3,2,1-ij]quinolin-4-one] yielded an MIC of 0.125 µg/mL (≈ 0.223 µM).
The value for `O=C1CSc2ccc(N3C[C@@H](CCCN[C@H]4Cn5c(=O)ccc6ccc(F)c4c65)OC3=O)cc2N1` [Example 127, (R)-9-fluoro-1-{3-[(R)-2-oxo-3-(3-oxo-3,4-dihydro-2H-benzo[1,4]thiazin-6-yl)-oxazolidin-5-yl]-propylamino}-1,2-dihydro-pyrrolo[3,2,1-ij]quinolin-4-one] was no more than 0.031 µg/mL; that for `O=C1CSc2ccc(N3C[C@@H](CCCN[C@@H]4Cn5c(=O)ccc6ccc(F)c4c65)OC3=O)cc2N1` [Example 128, (S)-9-fluoro-1-{3-[(R)-2-oxo-3-(3-oxo-3,4-dihydro-2H-benzo[1,4]thiazin-6-yl)-oxazolidin-5-yl]-propylamino}-1,2-dihydro-pyrrolo[3,2,1-ij]quinolin-4-one] was no more than 0.031 µg/mL.
The value for `O=C1CSc2ccc(N3C[C@H](CCCN[C@H]4Cn5c(=O)ccc6ccc(F)c4c65)OC3=O)cc2N1` [Example 129, (R)-9-fluoro-1-{3-[(S)-2-oxo-3-(3-oxo-3,4-dihydro-2H-benzo[1,4]thiazin-6-yl)-oxazolidin-5-yl]-propylamino}-1,2-dihydro-pyrrolo[3,2,1-ij]quinolin-4-one] was no more than 0.031 µg/mL; that for `O=C1CSc2ccc(N3C[C@H](CCCN[C@@H]4Cn5c(=O)ccc6ccc(F)c4c65)OC3=O)cc2N1` [Example 130, (S)-9-fluoro-1-{3-[(S)-2-oxo-3-(3-oxo-3,4-dihydro-2H-benzo[1,4]thiazin-6-yl)-oxazolidin-5-yl]-propylamino}-1,2-dihydro-pyrrolo[3,2,1-ij]quinolin-4-one] was no more than 0.031 µg/mL.
Regarding `O=C1COc2ccc(N3C[C@H](CCCN[C@H]4Cn5c(=O)cnc6ccc(F)c4c65)OC3=O)nc2N1` [Example 131, (R)-7-fluoro-6-{3-[(S)-2-oxo-3-(3-oxo-3,4-dihydro-2H-pyrido[3,2-b][1,4]oxazin-6-yl)-oxazolidin-5-yl]-propylamino}-5,6-dihydro-pyrrolo[1,2,3-de]quinoxalin-3-one], the MIC was no more than 0.031 µg/mL.
Regarding `O=C1CSc2ccc(N3C[C@@H](CCCN[C@H]4Cn5c(=O)cnc6ccc(F)c4c65)OC3=O)nc2N1` [Example 132, (R)-7-fluoro-6-{3-[(R)-2-oxo-3-(3-oxo-3,4-dihydro-2H-pyrido[3,2-b][1,4]thiazin-6-yl)-oxazolidin-5-yl]-propylamino}-5,6-dihydro-pyrrolo[1,2,3-de]quinoxalin-3-one], the MIC was no more than 0.031 µg/mL.
In the case of `O=C1CSc2ccc(N3C[C@H](CCCN[C@H]4Cn5c(=O)ccc6cccc4c65)OC3=O)cc2N1` [Example 133, (R)-1-{3-[(S)-2-oxo-3-(3-oxo-3,4-dihydro-2H-benzo[1,4]thiazin-6-yl)-oxazolidin-5-yl]-propylamino}-1,2-dihydro-pyrrolo[3,2,1-ij]quinolin-4-one] it was no more than 0.031 µg/mL; in that of `O=C1COc2ccc(N3C[C@H](CCCN[C@H]4Cn5c(=O)ccc6cccc4c65)OC3=O)cc2N1` [Example 134, (R)-1-{3-[(S)-2-oxo-3-(3-oxo-3,4-dihydro-2H-benzo[1,4]oxazin-6-yl)-oxazolidin-5-yl]-propylamino}-1,2-dihydro-pyrrolo[3,2,1-ij]quinolin-4-one], no more than 0.031 µg/mL.
The value for `O=C1COc2ccc(N3C[C@H](CCCN[C@H]4Cn5c(=O)ccc6cccc4c65)OC3=O)nc2N1` [Example 135, (R)-1-{3-[(S)-2-oxo-3-(3-oxo-3,4-dihydro-2H-pyrido[3,2-b][1,4]oxazin-6-yl)-oxazolidin-5-yl]-propylamino}-1,2-dihydro-pyrrolo[3,2,1-ij]quinolin-4-one] was no more than 0.031 µg/mL.
The value for `O=C1CSc2ccc(N3C[C@H](CCCN[C@@H]4Cn5c(=O)ccc6cccc4c65)OC3=O)nc2N1` [Example 136, (S)-1-{3-[(S)-2-oxo-3-(3-oxo-3,4-dihydro-2H-pyrido[3,2-b][1,4]thiazin-6-yl)-oxazolidin-5-yl]-propylamino}-1,2-dihydro-pyrrolo[3,2,1-ij]quinolin-4-one] was no more than 0.031 µg/mL.
